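Exposure lasted 48 hours, with cells grown in 96-well plates and compounds tested at five concentrations. Here, GI50 denotes the concentration required for 50% inhibition of growth. TGI denotes the concentration required for complete inhibition of growth.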
What was measured:
Test in all cases: inhibition of tumour cell growth, NCI panel, 48 h
DU-145 prostate = tested on: DU-145 prostate
HCC-2998 colon = tested on: HCC-2998 colon
OVCAR-3 ovarian = tested on: OVCAR-3 ovarian
TK-10 renal = tested on: TK-10 renal
COLO 205 colon = tested on: COLO 205 colon
MDA-MB-231 breast = tested on: MDA-MB-231 breast
SK-MEL-2 melanoma = tested on: SK-MEL-2 melanoma
UACC-62 melanoma = tested on: UACC-62 melanoma
NCI-H460 lung = tested on: NCI-H460 lung
OVCAR-8 ovarian = tested on: OVCAR-8 ovarian
NCI-H226 lung = tested on: NCI-H226 lung
SK-MEL-5 melanoma = tested on: SK-MEL-5 melanoma
A549 NSCLC = tested on: A549 NSCLC
HOP-62 NSCLC = tested on: HOP-62 NSCLC
UACC-257 melanoma = tested on: UACC-257 melanoma
MDA-MB-435 = tested on: MDA-MB-435
T-47D breast = tested on: T-47D breast
HT29 colon = tested on: HT29 colon
BT-549 breast = tested on: BT-549 breast
SK-MEL-28 melanoma = tested on: SK-MEL-28 melanoma
PC-3 prostate = tested on: PC-3 prostate
OVCAR-4 ovarian = tested on: OVCAR-4 ovarian
OVCAR-5 ovarian = tested on: OVCAR-5 ovarian
RXF 393 renal = tested on: RXF 393 renal
U251 CNS = tested on: U251 CNS
ACHN renal = tested on: ACHN renal
NCI/ADR-RES ovarian = tested on: NCI/ADR-RES ovarian
SF-268 CNS = tested on: SF-268 CNS
M14 melanoma = tested on: M14 melanoma
SW-620 colon = tested on: SW-620 colon
SNB-19 CNS = tested on: SNB-19 CNS
MOLT-4 leukemia = tested on: MOLT-4 leukemia
HCT-116 colon = tested on: HCT-116 colon
MCF7 breast = tested on: MCF7 breast
SN12C renal = tested on: SN12C renal
NCI-H522 lung = tested on: NCI-H522 lung
A498 renal = tested on: A498 renal
SR leukemia = tested on: SR leukemia
K-562 leukemia = tested on: K-562 leukemia
RPMI-8226 leukemia = tested on: RPMI-8226 leukemia
KM12 colon = tested on: KM12 colon
HCT-15 colon = tested on: HCT-15 colon
HS 578T breast = tested on: HS 578T breast
SNB-75 CNS = tested on: SNB-75 CNS
HOP-92 NSCLC = tested on: HOP-92 NSCLC
SK-OV-3 ovarian = tested on: SK-OV-3 ovarian

C#CC(F)(F)[C@]1(O)CC[C@H]2[C@@H]3CCC4=CC(=O)CCC4=C3[C@@H](c3ccc(C(C)=O)cc3)C[C@@]21C
GI50 (DU-145 prostate): 20.1 µM
TGI (DU-145 prostate): 95.1 µM
GI50 (HCC-2998 colon): 31.2 µM
TGI (HCC-2998 colon): > 100 µM
GI50 (OVCAR-3 ovarian): 0.289 µM
TGI (OVCAR-3 ovarian): 42.8 µM
GI50 (TK-10 renal): 24.9 µM
TGI (TK-10 renal): 71.4 µM
GI50 (COLO 205 colon): 13.1 µM
TGI (COLO 205 colon): 38.6 µM
GI50 (MDA-MB-231 breast): 15.7 µM
TGI (MDA-MB-231 breast): > 87.5 µM
GI50 (SK-MEL-2 melanoma): 13.2 µM
TGI (SK-MEL-2 melanoma): 32.8 µM
GI50 (UACC-62 melanoma): 12.5 µM
TGI (UACC-62 melanoma): 33.8 µM
GI50 (NCI-H460 lung): 21.5 µM
TGI (NCI-H460 lung): > 68.2 µM
GI50 (OVCAR-8 ovarian): 21.1 µM
TGI (OVCAR-8 ovarian): > 90.6 µM
GI50 (NCI-H226 lung): 21.7 µM
TGI (NCI-H226 lung): 71.3 µM
GI50 (SK-MEL-5 melanoma): 8.47 µM
TGI (SK-MEL-5 melanoma): 21.6 µM
GI50 (A549 NSCLC): 25.9 µM
TGI (A549 NSCLC): > 100 µM
GI50 (HOP-62 NSCLC): 18.7 µM
TGI (HOP-62 NSCLC): 73.8 µM
GI50 (UACC-257 melanoma): 21.1 µM
TGI (UACC-257 melanoma): 88.5 µM
GI50 (MDA-MB-435): 13.9 µM
TGI (MDA-MB-435): 52 µM
GI50 (T-47D breast): < 0.0135 µM
TGI (T-47D breast): 36.1 µM
GI50 (HT29 colon): 0.109 µM
TGI (HT29 colon): > 50.5 µM
GI50 (BT-549 breast): 15.5 µM
TGI (BT-549 breast): 55.2 µM
GI50 (SK-MEL-28 melanoma): 16.2 µM
TGI (SK-MEL-28 melanoma): > 72.4 µM
GI50 (PC-3 prostate): 10 µM
TGI (PC-3 prostate): 97.9 µM
GI50 (OVCAR-4 ovarian): 18.9 µM
TGI (OVCAR-4 ovarian): 97.1 µM
GI50 (OVCAR-5 ovarian): 28.3 µM
TGI (OVCAR-5 ovarian): > 100 µM
GI50 (RXF 393 renal): 13.4 µM
TGI (RXF 393 renal): 39.8 µM
GI50 (U251 CNS): 17.7 µM
TGI (U251 CNS): > 92.9 µM
GI50 (ACHN renal): 10.1 µM
TGI (ACHN renal): 97 µM
GI50 (NCI/ADR-RES ovarian): 13.8 µM
TGI (NCI/ADR-RES ovarian): 59 µM
GI50 (SF-268 CNS): 0.423 µM
TGI (SF-268 CNS): > 100 µM
GI50 (M14 melanoma): 16.9 µM
TGI (M14 melanoma): > 84.9 µM
GI50 (SW-620 colon): 24.2 µM
TGI (SW-620 colon): > 100 µM
GI50 (SNB-19 CNS): 28.4 µM
TGI (SNB-19 CNS): > 100 µM
GI50 (MOLT-4 leukemia): 3.9 µM
TGI (MOLT-4 leukemia): 63.4 µM
GI50 (HCT-116 colon): 14.1 µM
TGI (HCT-116 colon): 42.6 µM
GI50 (MCF7 breast): 2.64 µM
TGI (MCF7 breast): 63 µM
GI50 (SN12C renal): 25.1 µM
TGI (SN12C renal): > 95.3 µM
GI50 (NCI-H522 lung): 0.0167 µM
TGI (NCI-H522 lung): 0.0331 µM
GI50 (A498 renal): 23.1 µM
TGI (A498 renal): 84.8 µM
GI50 (SR leukemia): 0.868 µM
TGI (SR leukemia): 37 µM
GI50 (K-562 leukemia): 8.64 µM
TGI (K-562 leukemia): > 100 µM
GI50 (RPMI-8226 leukemia): 0.333 µM
TGI (RPMI-8226 leukemia): 6.25 µM
GI50 (KM12 colon): 0.123 µM
TGI (KM12 colon): 52.9 µM
GI50 (HCT-15 colon): 14.3 µM
TGI (HCT-15 colon): 56.8 µM
GI50 (HS 578T breast): 17 µM
TGI (HS 578T breast): > 95.2 µM
GI50 (SNB-75 CNS): 3.82 µM
TGI (SNB-75 CNS): > 100 µM
GI50 (HOP-92 NSCLC): 0.0456 µM
TGI (HOP-92 NSCLC): 0.356 µM
GI50 (SK-OV-3 ovarian): 20.7 µM
TGI (SK-OV-3 ovarian): > 100 µM

Reference: PubChem BioAssay (NCI)
